Source: patent US20110086862A1, “POLYMORPHS OF PARDOPRUNOX” (priority 2009, published 2011)

Legend:
[1] = molecular target: T1, serotonin 5-HT1A receptor (Homo sapiens, UniProt P08908); details: cited from earlier work
T1 sequence (P08908 1-422): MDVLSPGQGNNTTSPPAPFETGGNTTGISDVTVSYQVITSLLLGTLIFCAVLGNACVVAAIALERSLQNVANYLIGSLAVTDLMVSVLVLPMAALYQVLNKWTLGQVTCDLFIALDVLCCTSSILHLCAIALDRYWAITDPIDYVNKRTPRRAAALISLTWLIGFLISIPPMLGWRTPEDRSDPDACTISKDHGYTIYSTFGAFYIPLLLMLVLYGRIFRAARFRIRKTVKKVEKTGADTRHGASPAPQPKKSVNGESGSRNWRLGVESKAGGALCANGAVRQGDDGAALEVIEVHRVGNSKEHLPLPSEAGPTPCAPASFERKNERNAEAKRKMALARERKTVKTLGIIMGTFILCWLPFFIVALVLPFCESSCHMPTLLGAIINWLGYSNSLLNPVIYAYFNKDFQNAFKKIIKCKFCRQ

dopamine-D2 receptor = dopamine-D2 receptor (Homo sapiens, UniProt P14416); details: cited from earlier work
dopamine-D2 receptor, sequence (P14416 whole entry, species assumed): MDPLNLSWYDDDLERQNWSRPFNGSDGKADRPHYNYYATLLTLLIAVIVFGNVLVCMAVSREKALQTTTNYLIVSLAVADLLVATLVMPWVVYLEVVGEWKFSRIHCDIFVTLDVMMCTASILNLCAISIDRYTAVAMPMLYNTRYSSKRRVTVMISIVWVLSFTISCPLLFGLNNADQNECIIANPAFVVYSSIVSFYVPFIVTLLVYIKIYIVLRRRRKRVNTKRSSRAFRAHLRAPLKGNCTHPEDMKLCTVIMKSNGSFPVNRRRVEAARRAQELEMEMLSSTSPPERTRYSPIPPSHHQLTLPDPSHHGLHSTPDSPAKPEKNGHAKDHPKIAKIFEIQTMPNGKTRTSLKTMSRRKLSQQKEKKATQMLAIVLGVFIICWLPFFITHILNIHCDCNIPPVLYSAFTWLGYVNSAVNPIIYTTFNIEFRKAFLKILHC

[2] = Ageing experiments of α- and β-polymorphs (crystal modification by XRPD); format: physicochemical; details: shaken one week
Protocol: (§1) Relative stability of the α- and β-polymorphs of pardoprunox were determined by ageing and slurry experiments in six different solvents. The crystal modification of the solid material was determined using XRPD. For mixtures, amounts of α and β were determined using semi-quantitative calculations, based on the ratio of peak heights of specific reflections of the α- and β-polymorphs, respectively. A peak at 23.3° 2θwas used for α-polymorphs, and one at 15.3° 2θfor β-polymorphs. Due to effects of sample preparation, crystal orientation and differences in response factors, this estimation is semi-quantitative.
(§2) For ageing experiments, two series of saturated solutions of a specific polymorphic (α or β) form were shaken at 375 rpm, for one week, in six different solvents, one series at ambient temperature (ca. 20° C.) and one at 50° C. 40 ml tubes were filled with 0.5 g of the appropriate polymorphic form, and 25 ml of solvent (or mixture). After a week the precipitate was filtered and dried at ambient temperature under reduced pressure.

[3] = Stability tests: relative stability from ageing and slurry experiments; format: physicochemical; details: for Relative stability of the polymorphs: at the applied experimental conditions (ageing and slurry), hydrochloride; for Conversion from β- to α-polymorph: ageing and slurry, ambient temperature and 50° C.
Protocol: as §1, §2
(§3) For slurry experiments, two series of saturated solutions of a specific polymorphic (α or β) form were shaken at 375 rpm for one day in six different solvents, one series at ambient temperature and one at 50° C. 40 ml tubes were filled with 0.5 g of the appropriate polymorphic form, and 25 ml of solvent (or mixture). After 1 day about 2.5 ml of sample was taken from each tube, filtered and dried at ambient temperature under reduced pressure. Subsequently the crystal modification was determined. After the samples were taken each tube was seeded with 15-20 mg of the other polymorphic form. Then, all tubes were shaken for 1 week at 375 rpm at ambient temperature or at 50° C. Finally, the precipitate was filtered and dried at ambient temperature under reduced pressure and the crystal modification was determined.

[4] = Slurry experiments of α- and β-polymorphs (crystal modification by XRPD); format: physicochemical; details: for Crystal modifications by XRPD, slurry experiment: before/after seeding not distinguished; for Crystal modifications by XRPD, slurry experiment, after seeding: seeded with 15-20 mg of the other form, shaken 1 week; for Crystal modifications by XRPD, slurry experiment, before seeding: shaken 1 day
Protocol: as §1, §3

[5] = toluene/methanol (10:3), 50° C.
[6] = toluene/methanol (10:3), ambient

Which “Functional activity at serotonin 5-HT1A receptor” value [1] does the source give for `CN1CCN(c2cccc3[nH]c(=O)oc23)CC1.Cl` [pardoprunox, 7-(4-methyl-1-piperazinyl)benzoxazol-2(3H)-one mono-hydrochloride] here?
The value was “full serotonin 5-HT1A receptor agonist”.

What about the “Functional activity at dopamine-D2 receptor” value (dopamine-D2 receptor) of the same compound?
Its value is “partial dopamine-D2 receptor agonist”.

What does the source list for `CN1CCN(c2cccc3[nH]c(=O)oc23)CC1.Cl` [α-polymorph, 7-[(4-methyl)-1-piperazinyl]-2(3H)-benzoxazolone hydrochloride]?
Crystal modifications by XRPD after ageing ([2]; 1,2-dimethoxy ethane, 50° C., hydrochloride): α; Crystal modifications by XRPD after ageing ([2]; 1,2-dimethoxy ethane, ambient, hydrochloride): α; Crystal modifications by XRPD after ageing ([2]; 96% ethanol, 50° C.): α; Crystal modifications by XRPD after ageing ([2]; acetonitrile, 50° C., hydrochloride): α; Crystal modifications by XRPD after ageing ([2]; acetonitrile, ambient, hydrochloride): α; Crystal modifications by XRPD after ageing ([2]; ethyl acetate/isopropanol (2:1), 50° C., hydrochloride): α; Crystal modifications by XRPD after ageing ([2]; ethyl acetate/isopropanol (2:1), ambient, hydrochloride): α; Crystal modifications by XRPD after ageing ([2]; methyl ethyl ketone, 50° C., hydrochloride): α; Crystal modifications by XRPD after ageing ([2]; methyl ethyl ketone, ambient, hydrochloride): α; Crystal modifications by XRPD after ageing [2, 5]: α; Crystal modifications by XRPD after ageing [2, 6]: α; Conversion from α- to β-polymorph ([3]; ageing and slurry experiments, all solvents): Neither in ageing nor in slurry experiments, was conversion from α- to β-polymorph observed; Relative stability of the polymorphs ([3]; listed as a-polymorph): more stable than the β-polymorph; Relative stability of the polymorphs ([3]; listed as crystal modification a): more stable than crystal modification β; Crystal modifications by XRPD, slurry experiment ([4]; 1,2-dimethoxy ethane, 50° C.): α; Crystal modifications by XRPD, slurry experiment ([4]; 1,2-dimethoxy ethane, ambient): α; Crystal modifications by XRPD, slurry experiment ([4]; 96% ethanol, 50° C.): α; Crystal modifications by XRPD, slurry experiment ([4]; acetonitrile, 50° C.): α; Crystal modifications by XRPD, slurry experiment ([4]; acetonitrile, ambient): α; Crystal modifications by XRPD, slurry experiment ([4]; ethyl acetate/isopropanol (2:1), 50° C.): α; Crystal modifications by XRPD, slurry experiment ([4]; ethyl acetate/isopropanol (2:1), ambient): α; Crystal modifications by XRPD, slurry experiment ([4]; methyl ethyl ketone, 50° C.): α; Crystal modifications by XRPD, slurry experiment ([4]; methyl ethyl ketone, ambient): α; Crystal modifications by XRPD, slurry experiment [4, 5]: α; Crystal modifications by XRPD, slurry experiment [4, 6]: α

Which results are given for `CN1CCN(c2cccc3[nH]c(=O)oc23)CC1.Cl` [β-polymorph, 7-[(4-methyl)-1-piperazinyl]-2(3H)-benzoxazolone hydrochloride]?
Crystal modifications by XRPD after ageing ([2]; 96% ethanol, 50° C.): α; Crystal modifications by XRPD after ageing ([2]; 96% ethanol, ambient (ca. 20° C.), hydrochloride): α; Crystal modifications by XRPD after ageing [2, 5]: α; Crystal modifications by XRPD after ageing [2, 6]: α; Conversion from β- to α-polymorph ([3]; acetonitrile): substantial conversion; Conversion from β- to α-polymorph ([3]; ethanol and 10:3 toluene/methanol mixture): complete conversion; Conversion from β- to α-polymorph ([3]; other solvents): the conversion was minimal; Crystal modifications by XRPD, slurry experiment, after seeding ([4]; 96% ethanol, 50° C.): α; Crystal modifications by XRPD, slurry experiment, before seeding ([4]; 96% ethanol, 50° C.): α; Crystal modifications by XRPD, slurry experiment, after seeding ([4]; 96% ethanol, ambient): α; Crystal modifications by XRPD, slurry experiment, before seeding ([4]; 96% ethanol, ambient): α; Crystal modifications by XRPD, slurry experiment, after seeding ([4]; acetonitrile, 50° C.): α; Crystal modifications by XRPD, slurry experiment, after seeding [4, 5]: α; Crystal modifications by XRPD, slurry experiment, before seeding [4, 5]: α; Crystal modifications by XRPD, slurry experiment, after seeding [4, 6]: α
